# Legend:
# HCT116 = test: FMCA (Fluorometric Microculture Cytotoxicity Assay) cytotoxicity; type: cell-based; settings: 72 hours of continuous compound exposure
# Description: FIGS. 1a to 1o are diagrams illustrating induction of dose-dependent cytotoxicity after 72 hours of continuous compound exposure to the reporter cell line HCT-116 by embodiments of the compound of the invention, as measured FMCA (Fluorometric Microculture Cytotoxicity Assay), as well as absence of such induction by structurally related compounds not comprised by the invention. Treated cells were compared to untreated controls (survival index);
# Determination of cell apoptosis and viability. For determination of apoptosis parental HCT-116 p53+/+ cells are treated with the increasing doses of the compound of the invention for 24 h. […] HCT-116 cells are seeded in 96-well microtiter plates at 10,000 cells per well and incubated overnight. Cells are treated with indicated drug for 24 h. At the end of the incubation period, NP40 is added to the tissue culture medium to 0.1% and 25 μl of the content of each well was assayed using the M30-Apoptosense® ELISA as previously described (31). Cell viability is determined by measuring acid phosphatase activity or using the FMCA method (32). For the acid phosphatase activity cells are seeded at 5000 cells per well in 96-well culture plates and incubated for 12 h at 37° C. Compounds are added to the cells in growth media and incubated for 72 h at 37° C. Cells are washed with 200 μl warm PBS. 100 μl of para-nitrophenyl phosphate (pNPP, 2 mg/ml) in Na acetate buffer pH 5 (NaAc 0.1 M, 0.1% Triton-X-100) is added per well. Cells are incubated for 2 h after which reaction was stopped by addition of 1N NaOH. Absorbance is measured at 405 nm. The dose-dependent cytotoxicity of a number of embodiments of the compound of the invention is illustrated in FIGS. 1a-1o.
# For the FMCA assay cells are seeded in the drug-prepared 384-well plates using the pipetting robot Precision 2000 (Bio-Tek Instruments Inc., Winooski, Vt.). The plates are incubated for 72 h and then transferred to an integrated HTS SAIGAN Core System consisting of an ORCA robot (Beckman Coulter) with CO2 incubator (Cytomat 2C, Kendro, Sollentuna, Sweden), dispenser module (Multidrop 384, Titertek, Huntsville, Ala.), washer module (ELx 405, Bio-Tek Instruments Inc), delidding station, plate hotels, barcode reader (Beckman Coulter), liquid handler (Biomek 2000, Beckman Coulter) and a multipurpose reader (FLUOstar Optima, BMG Labtech GmbH, Offenburg, Germany) for automated FMCA. Survival index (SI) is defined as the fluorescence of test wells in percentage of controls with blank values subtracted.
# FIGS. 3b, 3d, 3f are diagrams illustrating the cytotoxicity of compounds of the invention nos. 1546, 1547, and 1570 with a 7-membered ring moiety in comparison to structurally corresponding compounds not comprised by the invention with a 6-membered ring moiety. Their induction of dose-dependent cytotoxicity was determined after 72 hours of continuous compound exposure to the reporter cell line HCT-116. Treated cells were compared with untreated controls. Cytotoxicity is visualized as survival index (SI) over the range of about 90% SI to about 0% SI in dependence on compound concentration.
# [1] = test system: MelJuSo Ub-YFP reporter cell line; test: Proteasome inhibition in reporter cell line, YFP accumulation in IncuCyte-FLR; type: cell-based; settings: YFP accumulation measured for 48 hours; for MeJuSo-UB, lowest effective conc.: Table 2
# From the text: Cell culture. MCF7 cells are maintained in MEM/10% fetal calf serum. HCT-116 p53+/+, p53−/−, Bcl-2+/+, PUMA−/− and BAX−/− cells are maintained in McCoy's 5A modified medium/10% fetal calf serum. The HCT-116 p53+/+, p53−/−, PUMA−/− and BAX−/− are generated as described (25). The HCT-116 Bcl-2+/+ cell line was generated by transfecting parental HCT-116 p53+/+ cells with pCEP4 Bcl-2 (Addgene plasmid 16461) (26) and isolating high expression clones. FaDu and LLC3 cells are maintained in DMEM high glucose medium supplemented with 10% fetal calf serum, Na pyruvate, Hepes and non-essential amino acids. 4T1.12B carcinoma cells are maintained in RPMI medium supplemented with 10% fetal calf serum. The proteasome reporter cell line MelJuSo Ub-YFP was generated as described (12). Cells were maintained in Dulbecco's Modified Eagle's Medium/10% fetal calf serum. […] The retinal epithelial cell line was generated as described (28). All cells are maintained at 37° C. in 5% CO2.
# The compound of the invention induces proteasome inhibition. The reporter cell line MelJuSo Ub-YFP, which is engineered to accumulate yellow fluorescent protein (YFP) upon proteasome inhibition (12), was used for compound evaluation. The accumulation of YFP was measured for 48 hours in an IncuCyte-FLR system (Essen Bioscience, Essen, UK), which is an automated fluorescence microscope. Numbers of positive cells per field were used as a measure of proteasome inhibition.
SMILES,IC50 (HCT116; Table 1) [nM],"MeJuSo-UB, IncuCyte lowest effective conc. ([1]; Table 1) [µM]","MeJuSo-UB, lowest effective conc. [1] [µM]",also measured
CN1CCC(=Cc2ccc(F)c([N+](=O)[O-])c2)C(=O)C(=Cc2ccc(F)c([N+](=O)[O-])c2)C1 [Compound 1565],1500,0.5,,
CN1CCC(=Cc2cccc([N+](=O)[O-])c2)C(=O)C(=Cc2cccc([N+](=O)[O-])c2)C1 [Compound 1620],> 32000,,,"MeJuSo-UB, IncuCyte lowest effective conc. (μM) ([1]; Table 1): no effect"
CN1CCC(=Cc2ccc(F)c(C(F)(F)F)c2)C(=O)C(=Cc2ccc(F)c(C(F)(F)F)c2)C1 [Compound 1609],1400,1,,
C=CC(=O)N1CCC(=Cc2ccc(F)cc2)C(=O)C(=Cc2ccc(F)cc2)C1 [Compound 1569],,,4,IC50 (HCT116; Table 2): 2000 nM
"CN1CC/C(=C\c2ccc([N+](=O)[O-])cc2)C(=O)/C(=C/c2ccc([N+](=O)[O-])cc2)C1 [Compound 1563, (3E,5E)-1-methyl-3,5-bis[(4-nitrophenyl)methylidene]azepan-4-one]",,0.5,,"IC50 (HCT116; Homo sapiens, HCT-116, Table 1): 1500 nM"
O=C1C(=Cc2ccc(F)c([N+](=O)[O-])c2)CCNCC1=Cc1ccc(F)c([N+](=O)[O-])c1 [Compound 1562],500,0.25,,
N#Cc1ccc(C=C2CCNCC(=Cc3ccc(C#N)cc3)C2=O)cc1 [Compound 1625],900,0.5,,
COc1ccc(C=C2CN(C(C)=O)CCC(=Cc3ccc([N+](=O)[O-])cc3)C2=O)cc1 [Compound 1581],,,8,IC50 (HCT116; Table 2): 7200 nM
CC(=O)N1CCC(=Cc2ccc([N+](=O)[O-])cc2)C(=O)C(=Cc2ccc(Cl)cc2)C1 [Compound 1597],,,1,IC50 (HCT116; Table 2): 1300 nM
COc1ccc(C=C2CN(C)CCC(=Cc3ccc([N+](=O)[O-])cc3)C2=O)cc1 [Compound 1588],3100,1,,
CC(=O)OCC(=O)N1CC/C(=C\c2cc(F)c(F)c(F)c2)C(=O)/C(=C/c2cc(F)c(F)c(F)c2)C1 [Compound 1651],,,0.5,IC50 (HCT116; Table 2): 800 nM
O=C1C(=Cc2ccc(F)cc2)CCNCC1=Cc1ccc([N+](=O)[O-])cc1 [Compound 1585],1500,2,,
CC(=O)N1CCC(=Cc2ccc(C(F)(F)F)cc2)C(=O)C(=Cc2ccc(C(F)(F)F)cc2)C1 [Compound 1627],,,1,IC50 (HCT116; Table 2): 700 nM
"COc1ccc(/C=C2\CNCC/C(=C\c3ccc([N+](=O)[O-])cc3)C2=O)cc1 [Compound 1575, (3E,5E)-3-[(4-methoxyphenyl)methylidene]-5-[(4-nitrophenyl)methylidene]azepan-4-one]",,1,,"IC50 (HCT116; Homo sapiens, HCT-116, Table 1): 2100 nM"
O=C1C(=Cc2cc(F)c(F)c(F)c2)CCN(C(=O)Cc2cccnc2)CC1=Cc1cc(F)c(F)c(F)c1 [Compound 1650],,,1,IC50 (HCT116; Table 2): 1900 nM
"O=C1/C(=C/c2cccc([N+](=O)[O-])c2)CCNC/C1=C\c1ccccc1 [Compound 1560, (3E,5E)-5-[(3-nitrophenyl)methylidene]-3-(phenylmethylidene)azepan-4-one]",,,,"IC50 (HCT116; Homo sapiens, HCT-116, Table 1): 1000 nM"
"O=C1/C(=C/c2ccc(Cl)cc2)CCNC/C1=C\c1ccc([N+](=O)[O-])cc1 [Compound 1583, (3E,5E)-5-[(4-chlorophenyl)methylidene]-3-[(4-nitrophenyl)methylidene]azepan-4-one]",,2,,"IC50 (HCT116; Homo sapiens, HCT-116, Table 1): 3300 nM"

SMILES,IC50 (HCT116; Table 1) [nM],"MeJuSo-UB, IncuCyte lowest effective conc. ([1]; Table 1) [µM]","MeJuSo-UB, lowest effective conc. [1] [µM]",also measured
O=C1C(=Cc2ccccc2[N+](=O)[O-])CCNCC1=Cc1ccccc1[N+](=O)[O-] [Compound 1536],6900,,,
CN1CCC(=Cc2ccc(C(F)(F)F)cc2)C(=O)C(=Cc2ccc(C(F)(F)F)cc2)C1 [Compound 1617],1600,1,,
"CCOC(=O)CCC(=O)N1CC/C(=C\c2ccc([N+](=O)[O-])cc2)C(=O)/C(=C/c2ccc([N+](=O)[O-])cc2)C1.O=C(O)C(F)(F)F [Compound 1507, (3E,5E)-1-(4-ethoxy-4-oxobutanoyl)-3,5-bis[(4-nitrophenyl)methylidene]-4-oxoazepan-1-ium trifluoroacetate]",,,8,"IC50 (HCT116; Homo sapiens, HCT-116, Table 2): 4400 nM"
COc1ccc(C=C2CNCCC(=Cc3ccc(F)cc3)C2=O)cc1 [Compound 1576],1600,8,,
"CCCN1CC/C(=C\c2ccc(F)cc2)C(=O)/C(=C/c2ccc(F)cc2)C1 [Compound 1574, (3E,5E)-3,5-bis[(4-fluorophenyl)methylidene]-1-propylazepan-4-one]",,0.5,,"IC50 (HCT116; Homo sapiens, HCT-116, Table 1): 2800 nM"
O=C1/C(=C/c2ccc(C(F)(F)F)cc2)CCN(C(=O)Cc2ccccn2)C/C1=C\c1ccc(C(F)(F)F)cc1 [Compound 1644],,,1,IC50 (HCT116; Table 2): 1400 nM
O=C1C(=Cc2ccc(Cl)cc2)CCNCC1=Cc1ccc(F)cc1 [Compound 1586],1100,0.5,,
O=C(O)C(F)(F)F.O=C1/C(=C/c2ccc([N+](=O)[O-])cc2)CCN(C(=O)[C@H]2CCCN2)C/C1=C\c1ccc([N+](=O)[O-])cc1 [Compound 1505],,,16,
CN1CCC(=Cc2ccc(F)c(F)c2)C(=O)C(=Cc2ccc(F)c(F)c2)C1 [Compound 1610],1700,1,,
CC(=O)OCC(=O)N1CC/C(=C\c2ccc(Cl)c(F)c2)C(=O)/C(=C/c2ccc(Cl)c(F)c2)C1 [Compound 1645],,,2,IC50 (HCT116; Table 2): 2500 nM
"O=C1/C(=C/c2ccccc2)CCNC/C1=C\c1ccccc1 [Compound 1516, (3E,5E)-3,5-Bis(phenylmethylidene)azepan-4-one]",,1.2,,
O=C1C(=Cc2ccc([N+](=O)[O-])cc2)CCNCC1=Cc1ccc([N+](=O)[O-])cc1 [Compound 1537],4100,,,
O=C1C(=Cc2cccc([N+](=O)[O-])c2)CCNCC1=Cc1cccc([N+](=O)[O-])c1 [Compound 1535],5900,,,
O=C1C(=Cc2ccc(Cl)cc2)CCN(C(=O)C2CCC2)CC1=Cc1ccc(Cl)cc1 [Compound 1527],,,2,
"O=C1/C(=C/c2ccc(Cl)cc2)CCNC/C1=C\c1ccc(Cl)cc1 [Compound 1518, (3E,5E)-3,5-bis[(4-chlorophenyl)methylidene]azepan-4-one]",,1.6,,
"O=C(O)C(F)(F)F.O=C1/C(=C/c2ccc([N+](=O)[O-])cc2)CCN(C(=O)[C@H]2CCCN2)C/C1=C\c1ccc([N+](=O)[O-])cc1 [Compound 1505, (2R)-2-{[(3E,5E)-3,5-bis[(4-nitrophenyl)methylidene]-4-oxoazepan-1-carbonyl}pyrrolidinium trifluoroacetate]",,,,IC50 (HCT116; Table 2): 5200 nM
